# In PubChem BioAssay AID276 (DTP/NCI, 2004):
# “And” between values parts separate entries of the source, which are not always exact repeats. Equal values may be shown once. Inconclusive results and toxic doses are left out.
# System: B6C3F1 mice, Lewis lung carcinoma iv, survival T/C
# Test: NCI In Vivo Anticancer Drug Screen. Data for tumor model Lewis Lung Carcinoma (intravenous) in B6C3F1 mice
# Conditions: endpoint: median survival time, schedule: Q01DX009 (ip), higher = longer survival
# Procedure: The antitumor activity of compounds was measured in mice bearing transplantable tumors. Survival or tumor size were measured and the results are expressed as the measurement made in the treated group (T) divided by the measurement made in the vehicle treated control group (C). The tumor model used in this assay is Lewis Lung Carcinoma (intravenous) in B6C3F1 mice
# [1] = dose: 1.56 mg/kg/injection, vehicle: saline
# [2] = dose: 6.25 mg/kg/injection, vehicle: saline
# [3] = dose: 12.5 mg/kg/injection, vehicle: saline
# [4] = dose: 5.0 mg/kg/injection, vehicle: saline with Tween-80
# [5] = dose: 10.0 mg/kg/injection, vehicle: saline with Tween-80
# [6] = dose: 25.0 mg/kg/injection, vehicle: Klucel (hydroxypropylcellulose) (HPC)
# [7] = dose: 50.0 mg/kg/injection, vehicle: Klucel (hydroxypropylcellulose) (HPC)
# [8] = dose: 100.0 mg/kg/injection, vehicle: Klucel (hydroxypropylcellulose) (HPC)
# [9] = dose: 200.0 mg/kg/injection, vehicle: Klucel (hydroxypropylcellulose) (HPC)
# [10] = dose: 25.0 mg/kg/injection, vehicle: saline
# [11] = dose: 50.0 mg/kg/injection, vehicle: saline
# [12] = dose: 100.0 mg/kg/injection, vehicle: saline
# [13] = dose: 200.0 mg/kg/injection, vehicle: saline
# [14] = dose: 12.5 mg/kg/injection, vehicle: saline with Tween-80
# [15] = dose: 25.0 mg/kg/injection, vehicle: saline with Tween-80
# [16] = dose: 50.0 mg/kg/injection, vehicle: saline with Tween-80
# [17] = dose: 3.12 mg/kg/injection, vehicle: saline
smiles,measurement,setting,value
COC(=O)[C@@H]1c2cc3c(c(O)c2[C@@H](OC)C[C@@]1(C)O)C(=O)c1c(O)cc2c(c1C3=O)OC1O[C@@]2(C)[C@H](O)[C@@H](N(C)C)[C@@H]1O,T/C,[1],99 % of control
same,T/C,"dose: 3.13 mg/kg/injection, vehicle: saline",112 % of control
same,T/C,[2],101 % of control
same,T/C,[3],97 % of control
O=NN(CCF)C(=O)NC1CCCCC1,T/C,"dose: 2.5 mg/kg/injection, vehicle: saline with Tween-80",109 % of control
same,T/C,"dose: 3.12 mg/kg/injection, vehicle: Klucel (hydroxypropylcellulose) (HPC)",107 % of control
same,T/C,[4],109 % of control
same,T/C,[5],155 % of control
same,T/C,"dose: 12.5 mg/kg/injection, vehicle: Klucel (hydroxypropylcellulose) (HPC)",269 % of control and 291 % of control
same,T/C,"dose: 20.0 mg/kg/injection, vehicle: saline with Tween-80",229 % of control
same,T/C,[6],227 % of control
COC(=O)Nc1nc2ccc(SC)cc2c(=O)[nH]1,T/C,[6],99 % of control
same,T/C,[7],110 % of control
same,T/C,[8],100 % of control
same,T/C,[9],110 % of control
O=c1[nH]cnc2[nH]ncc12,T/C,"dose: 12.5 mg/kg/injection, vehicle: suspension in saline",95 % of control
same,T/C,"dose: 25.0 mg/kg/injection, vehicle: suspension in saline",105 % of control
same,T/C,"dose: 50.0 mg/kg/injection, vehicle: suspension in saline",95 % of control
same,T/C,"dose: 100.0 mg/kg/injection, vehicle: suspension in saline",106 % of control
same,T/C,"dose: 200.0 mg/kg/injection, vehicle: suspension in saline",112 % of control
same,T/C,"dose: 400.0 mg/kg/injection, vehicle: suspension in saline",120 % of control
O=c1[nH]cc(F)c(=O)[nH]1,T/C,"dose: 5.0 mg/kg/injection, vehicle: saline",105 % of control
same,T/C,"dose: 10.0 mg/kg/injection, vehicle: saline",97 % of control and 102 % of control
same,T/C,"dose: 20.0 mg/kg/injection, vehicle: saline",107 % of control
CC1=CC2C(O)(CC(CO)=CC3C4C(C)(C)C4(OC(=O)c4ccccc4)C(OC(=O)c4ccccc4)C(C)C32O)C1=O (stereo unspecified),T/C,"dose: 0.12 mg/kg/injection, vehicle: saline with Tween-80",103 % of control
same,T/C,"dose: 0.25 mg/kg/injection, vehicle: saline with Tween-80",107 % of control
same,T/C,"dose: 0.5 mg/kg/injection, vehicle: saline with Tween-80",95 % of control
same,T/C,"dose: 1.0 mg/kg/injection, vehicle: saline with Tween-80",108 % of control
same,T/C,"dose: 2.0 mg/kg/injection, vehicle: saline with Tween-80",99 % of control
N=C(N)Sc1cc(O)ccc1O,T/C,[3],109 % of control
same,T/C,[10],95 % of control
same,T/C,[11],104 % of control
same,T/C,[12],99 % of control
same,T/C,[13],99 % of control
COc1cc2cc[n+](C)c(Cc3ccccc3)c2cc1OC,T/C,"dose: 3.13 mg/kg/injection, vehicle: saline with Tween-80",112 % of control
same,T/C,"dose: 6.25 mg/kg/injection, vehicle: saline with Tween-80",120 % of control
same,T/C,[14],96 % of control
same,T/C,[15],99 % of control
same,T/C,[16],91 % of control
COC(OC(CO)C(O)S(=O)(=O)O)C(O)S(=O)(=O)O (stereo unspecified),T/C,[3],109 % of control
same,T/C,[10],106 % of control
same,T/C,[11],97 % of control
same,T/C,[12],102 % of control
same,T/C,[13],98 % of control
CC1=NN(c2cccc(S(=O)(=O)O)c2)C(=O)C1N=Nc1cc(Cl)cc(S(=O)(=O)O)c1O.CC1=NN(c2cccc(S(=O)(=O)O)c2)C(=O)C1N=Nc1cc(Cl)cc(S(=O)(=O)O)c1O.[Cr] (stereo unspecified),T/C,[10],92 % of control
same,T/C,[11],100 % of control
same,T/C,[12],98 % of control
same,T/C,[13],98 % of control
CC1C=NNC1=O (stereo unspecified),T/C,[7],103 % of control
same,T/C,[8],103 % of control
same,T/C,[9],113 % of control
same,T/C,"dose: 400.0 mg/kg/injection, vehicle: Klucel (hydroxypropylcellulose) (HPC)",121 % of control
same,T/C,"dose: 800.0 mg/kg/injection, vehicle: Klucel (hydroxypropylcellulose) (HPC)",118 % of control
O=NN(CCCl)C(=O)Oc1cc(Cl)c(Cl)cc1Cl,T/C,"dose: 11.56 mg/kg/injection, vehicle: Klucel (hydroxypropylcellulose) (HPC)",105 % of control
same,T/C,"dose: 23.13 mg/kg/injection, vehicle: Klucel (hydroxypropylcellulose) (HPC)",101 % of control
same,T/C,"dose: 46.25 mg/kg/injection, vehicle: Klucel (hydroxypropylcellulose) (HPC)",122 % of control
O=NN(CCCl)C(=O)NCCCl,T/C,"dose: 1.5 mg/kg/injection, vehicle: Klucel (hydroxypropylcellulose) (HPC)",105 % of control
same,T/C,"dose: 1.5 mg/kg/injection, vehicle: saline + alcohol",107 % of control
same,T/C,"dose: 3.0 mg/kg/injection, vehicle: Klucel (hydroxypropylcellulose) (HPC)",120 % of control
same,T/C,"dose: 3.0 mg/kg/injection, vehicle: saline + alcohol",121 % of control
same,T/C,[4],303 % of control
same,T/C,"dose: 6.0 mg/kg/injection, vehicle: saline + alcohol",152 % of control
same,T/C,[5],181 % of control
same,T/C,"dose: 12.0 mg/kg/injection, vehicle: Klucel (hydroxypropylcellulose) (HPC)",114 % of control
same,T/C,"dose: 12.0 mg/kg/injection, vehicle: saline + alcohol",180 % of control
O=C1NC(=O)C2C3C=CC(C12)C1C2C(=O)NC(=O)C2C31 (stereo unspecified),T/C,[14],96 % of control and 105 % of control
same,T/C,[15],95 % of control and 102 % of control
same,T/C,[16],99 % of control
same,T/C,"dose: 100.0 mg/kg/injection, vehicle: saline with Tween-80",96 % of control
same,T/C,"dose: 200.0 mg/kg/injection, vehicle: saline with Tween-80",91 % of control
CCC(C(=O)O)C(=O)O.[NH2-].[NH2-].[Pt+2],T/C,[17],102 % of control
same,T/C,[2],103 % of control
same,T/C,[3],120 % of control
same,T/C,[10],112 % of control and 120 % of control
same,T/C,[11],109 % of control and 118 % of control
COc1cccc2c1C(=O)c1c(O)c3c(c(O)c1C2=O)CC(O)(C(=O)CO)CC3OC1CC(N)C(O)C(C)O1 (stereo unspecified),T/C,[1],110 % of control
same,T/C,"dose: 1.87 mg/kg/injection, vehicle: water",107 % of control
same,T/C,[17],109 % of control
same,T/C,"dose: 3.75 mg/kg/injection, vehicle: water",107 % of control
same,T/C,"dose: 4.5 mg/kg/injection, vehicle: water",101 % of control
same,T/C,[2],123 % of control
same,T/C,"dose: 7.5 mg/kg/injection, vehicle: water",109 % of control
same,T/C,"dose: 9.0 mg/kg/injection, vehicle: water",112 % of control
same,T/C,"dose: 15.0 mg/kg/injection, vehicle: water",119 % of control
same,T/C,"dose: 18.0 mg/kg/injection, vehicle: water",123 % of control
same,T/C,[10],119 % of control
same,T/C,[11],90 % of control
Oc1ccc(CCl)c2cccnc12,T/C,[3],105 % of control
same,T/C,[10],103 % of control
same,T/C,[11],103 % of control
same,T/C,[12],98 % of control
